Measurements from publication PMC12329412, “Study of the mass balance, biotransformation, and safety of [^14C]IBI351 in healthy Chinese subjects” (Journal of Biomedical Research, 2024).
Several values for one entry are separate records, joined by “and”; a condition that tells them apart may be missing. Equal values may be shown once. Entries after “also recorded” stand apart in the source; their conditions may differ.

Columns and labels:
[1] = Safety analysis: adverse events and laboratory tests; type: in vivo, human; settings: for Urea: reference range 3.1–8.0; for Urea / TBIL / ALT / GGT / AST / Cr: listed as [14C]IBI351; for TBIL: reference range 5.1–19.0; for ALT: reference range 9.0–50.0; for GGT: reference range 10.0–60.0; for AST: reference range 15.0–40.0; for Cr: reference range 57.0–97.0; for Safety and tolerability: vital signs, physical indexes, electrocardiogram
Description: Safety was evaluated based on the adverse events that occurred during the trial. Normal/abnormal changes in physical examination, vital signs, laboratory tests, electrocardiogram, and other results were evaluated before and after the trial.

[2] = Mass balance: recovery of total radioactivity in urine and feces; type: in vivo, human; settings: for Radioactivity excreted in feces / Radioactivity excreted in urine / Total radioactive excretion in urine and feces: 0–312 h, mean±SD, n=6
Description: This was a single-center, single-dose, open-trial study involving six healthy Chinese male subjects. They received a single dose of 600 mg/150 μCi [^14C]IBI351 on day 1 after fasting for at least 10 h. Blood, urine, and fecal samples were collected at specified time points or intervals within 15 days (0–336 h) following the administration of [^14C]IBI351.
Urine and fecal samples were collected for mass balance analysis and metabolite profiling. Urine samples were collected in polyethylene containers during the following time periods (in hours): −24–0 (pre-dosing), 0–4, 4–8, 8–12, 12–24, and at 24-h intervals thereafter (post-dosing) and stored at 4 ℃ during the collection period. Fecal samples were collected during the following periods (in hours): −24–0 (pre-dosing), 0–24, and at 24-h intervals thereafter (post-dosing). The collection of urine and fecal samples was terminated when the TRA in the combined biological samples (urine + feces) from each subject exceeded 90% of the administered dose. Additionally, the radioactivity in samples collected over two consecutive days should be less than 1% of the administered dose. The samples were weighed in special containers and stored at −10 ℃ to −30 ℃ until analysis.
Blood, plasma, urine, and fecal samples were analyzed for TRA using the Tri-Carb model 3110 TR liquid scintillation counter (PerkinElmer, Waltham, MA, USA). Blood samples were divided into two parallel portions (0.5 g) and completely burned by OX-501 oxidizer (R.J. Harvey, Tappan, NY, USA). Finally, the samples were analyzed by liquid scintillation counting. Plasma (0.5 g) and urine (1 g) samples were directly analyzed by liquid scintillation counting. Fecal samples were first homogenized with isopropanol/water (50/50, v/v). The excretion of radioactivity in the urine and feces, referring to the cumulative recovery of total radioactive material in each time period, was defined as the sum of the percentage of TRA in the urine and feces relative to the administered dose. The TRA in each sample during a time period and the percentage of TRA related to the administered dose (% of dose) were calculated using the following formula: % of dosage = (TRA detected in the sample/radioactive dosage) × 100%.

[3] = D3, individual subjects, rows in order 01101–01106
[4] = D8, individual subjects, rows in order 01101–01106
[5] = follow-up visit, individual subjects, rows in order 01101–01106
[6] = single oral 600 mg/150 μCi, listed as [^14C]IBI351
[7] = individual subjects, rows in order 01101–01106, listed as [14C]IBI351

In the case of `C=CC(=O)N1CCN2c3c(c(=O)n(-c4c(C)ccnc4C(C)C)c4nc(-c5c(O)cccc5F)c(Cl)cc34)N(C)C(=O)C2C1` (centres unmarked) [IBI351], the Urea [1, 3] is reported as 4.3 mmol/L and 4.9 mmol/L and 5.1 mmol/L and 4.5 mmol/L and 4.0 mmol/L and 5.5 mmol/L, the TBIL [1, 3] is reported as 6.4 µmol/L and 12.2 µmol/L and 7.7 µmol/L and 10.0 µmol/L and 11.5 µmol/L and 10.4 µmol/L and the ALT ([1]; D3, individual subjects, 01101, 01102–01106) is reported as 11.4 U/L and 10.3 U/L and 11.0 U/L and 14.4 U/L and 29.0 U/L and 17.0 U/L. The GGT [1, 3] was 9.9 U/L and 17.1 U/L and 19.1 U/L and 33.0 U/L and 14.4 U/L and 20.1 U/L, the AST [1, 3] was 18.5 U/L and 11.5 U/L and 10.9 U/L and 16.4 U/L and 23.6 U/L and 19.0 U/L and the Cr [1, 3] was 73.1 µmol/L and 69.5 µmol/L and 66.4 µmol/L and 69.2 µmol/L and 76.5 µmol/L and 78.7 µmol/L. For the same molecule, the Urea [1, 4] was 3.8 mmol/L and 5.4 mmol/L and 5.6 mmol/L and 4.2 mmol/L and 4.5 mmol/L and 5.1 mmol/L, the TBIL [1, 4] was 8.1 µmol/L and 14.2 µmol/L and 4.5 µmol/L and 8.0 µmol/L and 15.1 µmol/L and 13.5 µmol/L and the ALT [1, 4] was 18.3 U/L and 12.1 U/L and 10.5 U/L and 19.8 U/L and 30.9 U/L and 17.9 U/L. The GGT [1, 4] was 12.1 U/L and 25.8 U/L and 16.8 U/L and 33.8 U/L and 17.0 U/L and 19.2 U/L, the AST [1, 4] was 24.1 U/L and 14.2 U/L and 15.8 U/L and 15.2 U/L and 22.2 U/L and 17.7 U/L and the Cr [1, 4] was 69.6 µmol/L and 73.7 µmol/L and 64.2 µmol/L and 72.0 µmol/L and 76.4 µmol/L and 84.3 µmol/L. For the same molecule, the “Severity of TEAEs” value ([1]; all TEAEs, single oral 600 mg/150 μCi) was “grade 1”, the Urea [1, 5] was 3.5 mmol/L and 3.8 mmol/L and 5.6 mmol/L and 4.7 mmol/L and 4.1 mmol/L and 6.1 mmol/L and the TBIL [1, 5] was 8.1 µmol/L and 12.3 µmol/L and 4.5 µmol/L and 7.0 µmol/L and 8.8 µmol/L. For the same molecule, the ALT [1, 5] was 9.5 U/L and 20.5 U/L and 8.0 U/L and 19.4 U/L and 21.4 U/L and 14.7 U/L, the GGT [1, 5] was 13.4 U/L and 25.8 U/L and 22.0 U/L and 32.9 U/L and 16.9 U/L and 15.9 U/L and the AST [1, 5] was 15.7 U/L and 14.2 U/L and 16.9 U/L and 11.0 U/L and 19.4 U/L and 17.6 U/L. The Cr [1, 5] was 72.8 µmol/L and 73.1 µmol/L and 64.2 µmol/L and 71.4 µmol/L and 66.8 µmol/L and 92.4 µmol/L, the “Subjects experiencing treatment-emergent adverse events (TEAEs)” value ([1]; four of six subjects, TEAEs unrelated to [14C]IBI351, single oral 600 mg/150 μCi) was 66.7% and the “TEAE: diarrhea” value ([1]; share of six subjects, grade 1) was 33.3%. The “TEAE: elevated blood triglycerides” value ([1]; share of six subjects, grade 1) was 33.3%, the “TEAE: positive fecal occult blood” value ([1]; share of six subjects, grade 1) was 16.7% and the “TEAEs leading to death” value ([1]; single oral 600 mg/150 μCi) was “no TEAEs leading to death”. For the same molecule, the Serious adverse events [1, 6] was “no serious adverse events; also recorded: no severe adverse events”, the “TEAEs of CTCAE grade ≥ 3” value [1, 6] was “no TEAEs with Common Terminology Criteria for Adverse Events (CTCAE) grade ≥ 3; also recorded: no TEAEs of CTCAE grade ≥ 3” and the Safety and tolerability ([1]; single oral 600 mg/150 μCi) was “generally safe and well tolerated”. For the same molecule, the Safety and tolerability [1, 6] was “good safety and tolerance”, the “Radioactivity excreted in feces” value [2] was “approximately 86.30 % of dose” and the “Radioactivity excreted in urine” value [2] was 9.27 % of dose. For the same molecule, the “Total radioactive excretion in urine and feces” value (“Total radioactive excretion” for short) [2] was 95.56 % of dose, the “Radioactivity excreted in feces” value ([2]; listed as [14C]IBI351) was 86.30±4.90 % of dose and the “Radioactivity excreted in urine” value ([2]; listed as [14C]IBI351) was 9.27±1.83 % of dose. For the same molecule, the “Total radioactive excretion” value ([2]; listed as [14C]IBI351) was 95.56±3.41 % of dose, the “Radioactivity excreted in feces” value ([2]; listed as [^14C]IBI351) was 86.30 % of dose and the “Radioactivity excreted in urine” value ([2]; listed as [^14C]IBI351) was 9.27 % of dose. The “Total radioactive excretion” value ([2]; listed as [^14C]IBI351) was 95.56 % of dose, the Excretion rate ([2]; at 144 h (six days) post-dose) was “less than 1.00%” and the “Urine and feces recovered radioactivity” value ([2]; individual subjects, rows in order 01101–01106, 01105 normalized to 100.00%, listed as [14C]IBI351) was 92.36 % of dose and 94.47 % of dose and 91.45 % of dose and 96.48 % of dose and 100.00 % of dose and 98.61 % of dose. For the same molecule, the Feces recovered radioactivity [2, 7] was 80.29 % of dose and 87.83 % of dose and 92.67 % of dose and 89.35 % of dose and 80.67 % of dose and 86.99 % of dose, the Urine recovered radioactivity [2, 7] was 11.69 % of dose and 7.48 % of dose and 11.16 % of dose and 8.65 % of dose and 7.33 % of dose and 9.26 % of dose and the “TRA excreted into the feces” value ([2]; of the administered dose, from 0 h to 192 h) was 86.30%. For the same molecule, the “TRA excreted into the urine and feces” value ([2]; of the administered dose, period printed as 0–192 h) was 95.56% and the “Total radioactive content excreted in urine and feces within 120 h” value ([2]; within 120 h (five days) after administration, on average) was “more than 90.00%”.
